Columns and labels:
[1] = biological target: T1, DP-IV (Homo sapiens, UniProt P27487); assay: DP-IV activity colorimetric assay (Gly-Pro-4-NA hydrolysis, 405 nm) in human plasma; type: biochemical; settings: for %-Inhibition DP-IV / inhibition at 100000 µM: unspecific enzyme inhibitors and solvents at 100 mM
T1 construct: DP-IV also exists as a soluble circulating form in plasma; from tissue; host or cells: human plasma
Protocol: DP-IV activity was measured by a colorimetric assay.
400 μL assay buffer (9.5 g HEPES/l distilled water, pH adjusted to 7.0, product number H4034, Sigma, St. Louis, Mo.), 150 μL human plasma and 100 μL inhibitor solution (or solvent) were transferred into a photometer cuvette, gently mixed and pre-incubated at 37° C. for 3 minutes. The assay was then started by addition of 70 μL substrate solution (8.6 mg Gly-Pro-4-NA in 10 ml assay buffer).
DP-IV activity is expressed as the linear change in optical density over 20 min (Δ Abs/min).
Full inhibition (100%) indicated no apparent increase in absorption.
100% activity in a test sample indicated the same increase in absorption compared in a sample with no inhibitor. Zero activity (0%) indicated no apparent increase in absorption.

[2] = tested on: CaCO2 cells; assay: Absorption (uptake) of quercetin-glycosides in CaCO2 cells; type: in vitro ADME; settings: 60 minutes; for % uptake by CaCO2 cells (% of flavonol-glycosides present in incubation media): 2 g guava extract/100 ml incubation media, 37° C., mean of 5 incubations
Protocol: Incubation conditions: 37° C. for 60 minutes (5 replicate incubations)
Data evaluation: Ratio of peak areas of individual flavonol-glycosides obtained from HPLC analysis of incubation media (immediately after preparation and after 60 minutes of incubation) and the cell content.
Cells were grown in 75 cm^2 culture-flasks (T75) and subcultured after one week (every other day washed with PBS buffer, removed with trypsin and transferred to an new culture flask).
7 to 8 days until confluency was reached. The cells were washed with PBS buffer and incubated with the flavonol for 60 minutes.
After the corresponding incubation time, 900 μl of incubation medium used was taken from each well and mixed with 100 μl formic acid. The cells were washed with PBS buffer and removed using 1 ml of 10% formic acid. Cells were sonicated 3 times for 30 seconds, centrifuged for 10 minutes and the pellets were discarded. The supernatant was used as sample for HPLC.

[3] = Stability of individual flavonol-glycosides during incubation conditions; type: physicochemical; settings: 2 g extract (Example 2)/100 ml incubation media

T1 sequence (P27487 39-766 limits assumed): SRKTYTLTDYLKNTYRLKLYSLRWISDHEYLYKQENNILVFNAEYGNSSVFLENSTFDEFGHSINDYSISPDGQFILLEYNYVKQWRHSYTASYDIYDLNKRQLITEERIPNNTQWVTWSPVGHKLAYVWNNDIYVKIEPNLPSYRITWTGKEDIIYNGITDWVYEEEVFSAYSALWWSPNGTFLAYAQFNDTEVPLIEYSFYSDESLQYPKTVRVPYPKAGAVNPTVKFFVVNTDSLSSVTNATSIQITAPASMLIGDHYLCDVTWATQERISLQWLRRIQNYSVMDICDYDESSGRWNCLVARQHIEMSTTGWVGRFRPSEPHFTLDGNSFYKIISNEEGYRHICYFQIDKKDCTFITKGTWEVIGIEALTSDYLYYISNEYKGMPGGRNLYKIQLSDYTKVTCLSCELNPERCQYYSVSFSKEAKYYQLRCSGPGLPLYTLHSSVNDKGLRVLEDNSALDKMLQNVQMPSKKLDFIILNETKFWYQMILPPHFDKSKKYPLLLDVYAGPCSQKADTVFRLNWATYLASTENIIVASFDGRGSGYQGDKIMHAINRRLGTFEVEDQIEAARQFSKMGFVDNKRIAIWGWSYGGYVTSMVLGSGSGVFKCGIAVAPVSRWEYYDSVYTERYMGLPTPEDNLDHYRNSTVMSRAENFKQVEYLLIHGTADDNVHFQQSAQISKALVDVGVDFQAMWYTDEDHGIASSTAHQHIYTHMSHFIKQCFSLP

For `C[S+](C)[O-]` [DMSO], the “%-Inhibition DP-IV” value ([1]; human plasma) was 75.3%.

For `O=C(O)CN(CCN(CC(=O)O)CC(=O)O)CC(=O)O` [EDTA], the “%-Inhibition DP-IV” value ([1]; human plasma) was 24.0%.

`CCO` [Ethanol] showed an inhibition at 100000 µM ([1]; human plasma) of 52.8%.

With `Cl.NCCN` [Ethylendiamine•HCl] the “%-Inhibition DP-IV” value ([1]; human plasma) was 19.0%.

For `OCCS` [Mercaptoethanol], the “%-Inhibition DP-IV” value ([1]; human plasma) was 15.3%.

In the case of `CO` [Methanol], the inhibition at 100000 µM ([1]; human plasma) is reported as 59.7%.

With `Cn1ccnc1S` [Methimazol] the “%-Inhibition DP-IV” value ([1]; human plasma) was 10.0%.

With `C[CH2][Hg][S]c1ccccc1C(=O)[O-].[Na+]` [Thimerosal] the “%-Inhibition DP-IV” value ([1]; human plasma) was less than 1.0%.

In the case of `[Zn+2]` [Zinc^++], the “%-Inhibition DP-IV” value ([1]; human plasma) is reported as 19.3%.

In the case of `O=c1c(O[C@@H]2O[C@H](CO)[C@@H](O)[C@H](O)[C@H]2O)c(-c2ccc(O)c(O)c2)oc2cc(O)cc(O)c12` [compound 4], the “% uptake by CaCO2 cells (% of flavonol-glycosides present in incubation media)” value [2] is reported as 4.5% and the “Stability 60 min. at 37° C., pH = 7” value [3] is reported as 98.2 % from time = 0.

In the case of `O=c1c(O[C@@H]2OC[C@H](O)[C@H](O)[C@H]2O)c(-c2ccc(O)c(O)c2)oc2cc(O)cc(O)c12` [compound 6], the “% uptake by CaCO2 cells (% of flavonol-glycosides present in incubation media)” value [2] is reported as 5.3%, the IC50 ([1]; Concentration for 50% inhibition of DPIV, isolated flavonol-glycosides tested at 100-500 μg/ml, estimated) is reported as 400 µM and the “Stability 60 min. at 37° C., pH = 7” value [3] is reported as 98.0 % from time = 0.

For `O=c1c(O[C@@H]2OC[C@H](O)[C@H](O)[C@H]2O)c(-c2ccc(O)c(O)c2)oc2cc(O)cc(O)c12` [guaijaverin, quercetin-3-O-alpha-L-arabinopyranoside], the “absorption ranking in CaCO2 cells (in words)” value ([2]; 2 g guava extract/100 ml) was “best absorption”, the IC50 ([1]; concentration yielding a DP-IV inhibition of around 50%, human plasma, 70-280 μg/ml tested) was 322 to 483 µM and the “DP-IV inhibition (in words)” value ([1]; human plasma) was “clear, dose dependent inhibition”. The “concentration yielding a DP-IV inhibition of around 50%” value ([1]; human plasma, read from dose/response curve) was 100-150 μg/assay volume and the “inhibition of DP-IV” value ([1]; sample adjusted to contain 180 μg guaijaverin/ml test assay, human plasma (FIG. 6)) was 50%.

Reference: patent publication US20080293644A1, “GUAVA EXTRACT” (priority 2007, published 2008)
